In brackets after ≈: the same amount, converted by molar mass. Read-outs that look alike come from different tables or passages of the source.
Columns and labels:
[1] = tested on: cucumber powdery mildew; test: field efficacy test for cucumber powdery mildew; type: in vivo; settings: spray
Experimental: Field efficacy test for preventing and treating cucumber powdery mildew.
The test object is cucumber powdery mildew. The test is carried out on Xiaoying village of Liuhe district of Nanjing city, Jiangsu Province, China, the field trend of the test is flat, the soil is loam, the fertility is medium, the pH value is 6.8, and the management of rich water during the test is medium. And setting blank contrast, repeating the treatment for 3 times, wherein each cell has 30 square meters and is arranged in random block groups. The water consumption per acre is 40 L by adopting a conventional spraying method, and the water is uniformly sprayed on the front and back surfaces of the leaves.
The investigation and statistical method comprises the steps of investigating the base of illness state before application of the medicament, and investigating once again 10-14 days after the last application of the medicament, wherein 2 times of investigation are total. Four points are randomly taken from each cell, 2 plants are investigated from each point, all leaves are investigated from each plant, and each leaf is graded and recorded according to the percentage of lesion spots to the leaf area. The grading method comprises the following steps: • stage 0: no lesion spots; • stage 1: the lesion area accounts for less than 5% of the whole leaf area; • stage 3: the ratio of the lesion spot area to the whole leaf area is more than 6% to less than 10%; • stage 5: the ratio of the lesion spot area to the whole leaf area is more than 11% to less than 25%; • stage 7: the ratio of the lesion spot area to the whole leaf area is more than 26% to less than 50%; • stage 9: the ratio of the lesion spot area to the whole leaf area is more than 50%;
When the fungicidal activity of the active compound combination exceeds the sum of the activities of the active compounds when applied individually, then there is always a synergistic effect of the fungicides. The expected activity of a given combination of two active compounds can be calculated (according to the Colby formula) as follows (refer to S. R. Colby, “Calculation of the synergistic andantagonistic responses of herbicide combinations”, Weeds 1967, 15, pages 20-22):
[formula] • X is the efficacy of component A when applied at an application rate of m g a.i./ha, • Y is the efficacy of component B when applied at an application rate of n g a.i./ha, • Cexp is the expected efficacy when the active compound A is administered at an application rate of m g a.i./ha and the active compound B is administered at an application rate of n g a.i./ha, respectively, • the degree of efficacy is expressed as %: 0% means the efficacy corresponding to the control group, while 100% efficacy means no disease observed. • C-Cobs/Cexp, C>1 indicates synergy and antagonism if C<1.

[2] = tested on: rape sclerotinia sclerotiorum; test: plate method, inhibition of hypha growth (in-vessel bioassay); type: cell-based; settings: for EC50: Sclerotinia sclerotiorum
[3] = tested on: wheat scab germ (Fusarium graminearum); test: microbe, parasite or virus in culture; type: cell-based; settings: for Measured Toxicity Index of Mixture (ATI): standard fungicide = component A
[4] = tested on: Blumeria graminis; test: pot culture method, protective control of wheat powdery mildew; type: in vivo; settings: for Measured Toxicity Index of Mixture (ATI): standard fungicide = component A; for EC50: Blumeria graminis, control efficacy, potted wheat, sprayed 24 h before inoculation, 7 days after inoculation
[5] = tested on: wheat rust (Puccinia striiformis f. sp. tritici); test: pot culture method, protective control of wheat rust; type: in vivo; settings: for Measured Toxicity Index of Mixture (ATI): standard fungicide = component A; for EC50: Puccinia striiformis
[6] = single component B, g a.i./ha: azoxystrobin 72, fludioxonil 50, pyraclostrobin 160, difenoconazole 100
[7] = hypha growth inhibition, plate method, wheat fusarium graminearum

Compound	EC50 [2]	Measured Toxicity Index of Mixture (ATI) [3]	Measured Toxicity Index of Mixture (ATI) [4]	Measured Toxicity Index of Mixture (ATI) [5]	EC50 ([3]; Fusarium graminearum)	EC50 [4]	EC50 [5]	further results
CO/C=C(/C(=O)OC)c1ccccc1Oc1cc(Oc2ccccc2C#N)ncn1 [azoxystrobin]								Cobs Actual control Effect [1, 6]: 50.28%
N#Cc1c(Cl)c(Cl)c(Cl)c(C#N)c1Cl [chlorothalonil]	0.82 µg/mL (≈ 3.08 µM)							Measured Toxicity Index of Mixture (ATI) [2]: 1.22
CC(C1CC1)C(O)(Cn1cncn1)c1ccc(Cl)cc1 (stereo not drawn) [ciproconazole]		0.50	94.12	233.08				EC50 [3, 7]: 2 µg/mL (≈ 6.85 µM)
C=C(CN(C(=O)c1c(C(F)F)nn(C)c1F)C1CC1)c1ccc(Cl)cc1Cl [component A]	0.01 µg/mL (≈ 0.0239 µM)	100.00	100.00	100.00	0.01 µg/mL (≈ 0.0239 µM)	16 µg/mL (≈ 38.3 µM)	29 µg/mL (≈ 69.3 µM)	Measured Toxicity Index of Mixture (ATI) ([2]; standard fungicide = component A): 100; Cobs Actual control Effect ([1]; 40 g a.i./ha): 37.60%; Cobs Actual control Effect ([1]; 60 g a.i./ha): 46.88%; Cobs Actual control Effect ([1]; 104 g a.i./ha): 54.68%; Cobs Actual control Effect ([1]; 150 g a.i./ha): 67.74%
CC1COC(Cn2cncn2)(c2ccc(Oc3ccc(Cl)cc3)cc2Cl)O1 (stereo not drawn) [difenoconazole]								Cobs Actual control Effect [1, 6]: 67.85%
N#Cc1c[nH]cc1-c1cccc2c1OC(F)(F)O2 [fludioxonil]	0.015 µg/mL (≈ 0.0604 µM)							Measured Toxicity Index of Mixture (ATI) [2]: 66.67; Cobs Actual control Effect [1, 6]: 47.70%
CC1(C)CCC(Cc2ccc(Cl)cc2)C1(O)Cn1cncn1 (stereo not drawn) [metconazole]		33.33			0.03 µg/mL (≈ 0.0938 µM)			
CCOC(=O)C(C#N)=C(N)c1ccccc1 [phenamacril]		2.50						EC50 [3, 7]: 0.4 µg/mL (≈ 1.85 µM)
CCCN(CCOc1c(Cl)cc(Cl)cc1Cl)C(=O)n1ccnc1 [prochloraz]	0.08 µg/mL (≈ 0.212 µM)	50.00			0.02 µg/mL (≈ 0.0531 µM)			Measured Toxicity Index of Mixture (ATI) [2]: 12.5
CCCC1COC(Cn2cncn2)(c2ccc(Cl)cc2Cl)O1 (stereo not drawn) [propiconazole]			145.45	193.33		11 µg/mL (≈ 32.1 µM)	15 µg/mL (≈ 43.8 µM)	
OC(Cc1ccccc1Cl)(Cn1nc[nH]c1=S)C1(Cl)CC1 (stereo not drawn) [prothioconazole]		0.25	114.29	322.22	4 µg/mL (≈ 11.6 µM)	14 µg/mL (≈ 40.7 µM)	9 µg/mL (≈ 26.1 µM)	
COC(=O)N(OC)c1ccccc1COc1ccn(-c2ccc(Cl)cc2)n1 [pyraclostrobin]		0.50	133.33	241.67	2 µg/mL (≈ 5.16 µM)	12 µg/mL (≈ 30.9 µM)	12 µg/mL (≈ 30.9 µM)	Cobs Actual control Effect [1, 6]: 72.87%
CC(C)(C)C(O)(CCc1ccc(Cl)cc1)Cn1cncn1 (stereo not drawn) [tebuconazole]	0.1 µg/mL (≈ 0.325 µM)	16.67	123.08	181.25	0.06 µg/mL (≈ 0.195 µM)	13 µg/mL (≈ 42.2 µM)	16 µg/mL (≈ 52 µM)	Measured Toxicity Index of Mixture (ATI) [2]: 10.00
OCC1=C[C@H](N[C@H]2C[C@H](CO)[C@@H](O[C@@H]3O[C@H](CO)[C@@H](O)[C@H](O)[C@H]3O)[C@H](O)[C@H]2O)[C@H](O)[C@@H](O)[C@@H]1O [validamycin]		0.08			13 µg/mL (≈ 26.1 µM)			
fluazolidinamide			80.00	116.00				
